From ChEMBL document CHEMBL1201862, “PubChem BioAssay data set” (2004) come the findings set out here.

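Grown in 96-well plates, cells were treated for 48 hours with each compound at five concentrations. Insufficient inhibition: endpoint recorded as highest concentration tested. At the GI50, growth is halved.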 The source made the active and inactive calls. Cut-off read from the data, not from the text of the source: active = GI50 up to about 1.1 µM and inactive = higher. A value given as a limit tells only on which side of the number the result lay.

Among the test systems are DMS-273; OVCAR-3; TK-10; HT-29; T47D; LXFL 529; PC-3; HOP-62; OVCAR-5; OVCAR-8; RXF 393; HCT-15; BT-549; MDA-N; DU-145; SK-MEL-5; NCI-H23; M19-MEL; SN12C; DLD-1.
Test in all cases: growth of human tumour cells (NCI), 48 h

As to `ON(Cc1ccccc1)C(=S)c1ccccc1`, the GI50 was 2.62 µM (inactive) with DMS-273; 2.72 µM (inactive) with OVCAR-3; 21.8 µM (inactive) in the experiment on TK-10; 2.88 µM (inactive) in the experiment on HT-29; 5.9 µM (inactive) in the experiment on T47D; 1.66 µM (inactive) with LXFL 529. In addition, the GI50 in the experiment on PC-3 was 3.03 µM (inactive); in the experiment on HOP-62, 4.85 µM (inactive); in the experiment with OVCAR-5, 17.9 µM (inactive); in the experiment on OVCAR-8, 3.46 µM (inactive); in the experiment on RXF 393 it was 8.97 µM (inactive); with HCT-15, 2600 nM. Besides, the GI50 is 39.2 µM (inactive) in the experiment with BT-549; 6.81 µM (inactive) in the experiment on MDA-N; 7.38 µM (inactive) with DU-145; 4.47 µM (inactive) in the experiment on SK-MEL-5; 3.62 µM (inactive) in the experiment with NCI-H23; 6.58 µM (inactive) with M19-MEL. Besides, the GI50 was 8.41 µM (inactive) in the experiment with SN12C and 5.18 µM (inactive) in the experiment on DLD-1.

As for `CC1(Br)S(=O)(=O)OCCOS1(=O)=O`, the GI50 in the experiment on DMS-273, with OVCAR-3, with TK-10, in the experiment on HT-29, with LXFL 529 and with HOP-62 was > 100 µM (inactive) in each case. In addition, the GI50 was > 100 µM (inactive) in the experiment with OVCAR-5; > 100 µM (inactive) with OVCAR-8; > 100 µM (inactive) with RXF 393; greater than 100000 nM in the experiment on HCT-15; > 100 µM (inactive) with SK-MEL-5; > 100 µM (inactive) in the experiment with NCI-H23. For the same compound, the GI50 in the experiment with M19-MEL, in the experiment with SN12C and in the experiment with DLD-1 was > 100 µM (inactive) in each case.
